Several values for one entry are separate records, joined by “and”; a condition that tells them apart may be missing. Identical values can stand only once. Toxic doses and inconclusive results are not listed. Starred links: 1 amine or outer side, 2 acyl side, 3 side chain; linkers in the order of their positions; H or OH if unused. Positions of bridges follow the written chain, without caps; N, C: chain ends. Non-standard residues stand in square brackets, D forms with d. Residues, ends and D or L forms follow the SMILES beside them. Chains are numbered I, II in the order given. ξ: configuration not given here. *: point of attachment. Quinaldoyl(3-OH,6-OMe) = COc1ccc2nc(C(=O)*)c(O)cc2c1; X1 = CCC(=O)OC1CC=NN([*:1])C1C(=O)[*:2]; X2 = CC(=O)OC1CC=NN([*:1])C1C(=O)[*:2]; ξNMeVal(3-OH) = CNC(C(=O)O)C(C)(C)O; Sar = CNCC(=O)O
System: BDF1 mice, M5076 sarcoma ip, median survival T/C
Assay: NCI In Vivo Anticancer Drug Screen. Data for tumor model Sarcoma M5076 (intraperitoneal) in B6D2F1 (BDF1) mice
Details: endpoint: median survival time, higher = longer survival
Protocol: The antitumor activity of compounds was measured in mice bearing transplantable tumors. Survival or tumor size were measured and the results are expressed as the measurement made in the treated group (T) divided by the measurement made in the vehicle treated control group (C). The tumor model used in this assay is Sarcoma M5076 (intraperitoneal) in B6D2F1 (BDF1) mice

[1] = dose: 5.0 mg/kg/injection, schedule: Q04DX004 (ip), vehicle: water
[2] = dose: 10.0 mg/kg/injection, schedule: Q04DX004 (ip), vehicle: water
[3] = dose: 50.0 mg/kg/injection, schedule: Q04DX004 (ip), vehicle: saline with Tween-80
[4] = dose: 100.0 mg/kg/injection, schedule: Q04DX004 (ip), vehicle: saline with Tween-80
[5] = dose: 200.0 mg/kg/injection, schedule: Q04DX004 (ip), vehicle: saline with Tween-80

Q: Which results are given for `CCC/C=C/C=C/C(=O)OC1C(C)C2(O)C3C=C(C)C(=O)C3CC(COC(C)=O)=CC2C2C(C)(C)C12OC(=O)C(C)C` (stereo not drawn)?
A: T/C (dose: 0.38 mg/kg/injection, schedule: Q01DX009 (ip), vehicle: saline + alcohol): 110 % of control; T/C (dose: 0.75 mg/kg/injection, schedule: Q01DX009 (ip), vehicle: saline + alcohol): 103 % of control; T/C (dose: 1.5 mg/kg/injection, schedule: Q01DX009 (ip), vehicle: saline + alcohol): 110 % of control; T/C (dose: 3.0 mg/kg/injection, schedule: Q01DX009 (ip), vehicle: saline + alcohol): 114 % of control; T/C (dose: 6.0 mg/kg/injection, schedule: Q01DX009 (ip), vehicle: saline + alcohol): 115 % of control

Q: How did the T/C (dose: 2.5 mg/kg/injection, schedule: Q04DX004 (ip), vehicle: water) turn out when `COC(=O)NC1C(C)OC(OC2C/C=C(/C)C3C=CC4C(OC5CC(OC6CCC(OC7CC(O)C(OC8CCC(O)C(C)O8)C(C)O7)C(C)O6)C(OC(C)=O)C(C)O5)C(C)CC(C)C4C3(C)/C(O)=C3/C(=O)OC4(CC(C=O)=CC(O)C4/C=C\2C)C3=O)CC1(C)[N+](=O)[O-]` (stereo not drawn) was run?
A: 107 % of control

Q: And the T/C [1]?
A: 96 % of control

Q: And the T/C [2]?
A: 103 % of control

Q: With `NC1=NC(O)C=C1` (stereo not drawn) as the molecule, how does the T/C (dose: 3.12 mg/kg/injection, schedule: Q01DX009 (ip), vehicle: saline) read?
A: 118 % of control

Q: What about the T/C (dose: 20.0 mg/kg/injection, schedule: Q01DX009 (ip), vehicle: saline) of the same molecule?
A: 152 % of control

Q: And the T/C (dose: 25.0 mg/kg/injection, schedule: Q01DX009 (ip), vehicle: saline)?
A: 160 % of control

Q: And the T/C (dose: 40.0 mg/kg/injection, schedule: Q01DX009 (ip), vehicle: saline)?
A: 152 % of control

Q: What about the T/C (dose: 50.0 mg/kg/injection, schedule: Q01DX009 (ip), vehicle: saline) of the same molecule?
A: 178 % of control

Q: How did the T/C (dose: 1.0 mg/kg/injection, schedule: Q01DX009 (ip), vehicle: water) turn out when `C[C@@](O)(/C=C/[C@H]1CC=CC(=O)O1)[C@@H](C[C@@H](O)\C=C/C=C\C=C\CO)OP(=O)(O)O` was run?
A: 112 % of control

Q: What about the T/C (dose: 2.0 mg/kg/injection, schedule: Q01DX009 (ip), vehicle: water) of the same molecule?
A: 106 % of control

Q: What about the T/C (dose: 4.0 mg/kg/injection, schedule: Q01DX009 (ip), vehicle: water) of the same molecule?
A: 98 % of control

Q: And the T/C (dose: 8.0 mg/kg/injection, schedule: Q01DX009 (ip), vehicle: water)?
A: 120 % of control

Q: How did the T/C [1] turn out when `CCN(CC)CCNc1ccc(C)c2sc3ccccc3c(=O)c12` was run?
A: 113 % of control

Q: What about the T/C [2] of the same molecule?
A: 112 % of control

Q: What about the T/C (dose: 20.0 mg/kg/injection, schedule: Q04DX004 (ip), vehicle: water) of the same molecule?
A: 103 % of control

Q: And the T/C (dose: 40.0 mg/kg/injection, schedule: Q04DX004 (ip), vehicle: water)?
A: 112 % of control

Q: And the T/C (dose: 160.0 mg/kg/injection, schedule: Q04DX004 (ip), vehicle: water)?
A: 108 % of control

Q: With `COc1cc2c(cc1OC)[C@@H]1C(=O)c3ccc4c(c3O[C@@H]1CO2)C[C@H](C(C)C)O4` as the molecule, how does the T/C (dose: 1.56 mg/kg/injection, schedule: Q01DX009 (ip), vehicle: Klucel (hydroxypropylcellulose) (HPC)) read?
A: 112 % of control and 114 % of control

Q: What about the T/C (dose: 3.12 mg/kg/injection, schedule: Q01DX009 (ip), vehicle: Klucel (hydroxypropylcellulose) (HPC)) of the same molecule?
A: 110 % of control

Q: And the T/C (dose: 6.25 mg/kg/injection, schedule: Q01DX009 (ip), vehicle: Klucel (hydroxypropylcellulose) (HPC))?
A: 122 % of control

Q: What about the T/C (dose: 12.5 mg/kg/injection, schedule: Q01DX009 (ip), vehicle: Klucel (hydroxypropylcellulose) (HPC)) of the same molecule?
A: 124 % of control

Q: For `CN=C(N)N/N=C(\C)c1ccc2sc3ccc(/C(C)=N/NC(N)=NC)cc3c2c1`, which T/C [3] is on record?
A: 113 % of control

Q: And the T/C [4]?
A: 105 % of control

Q: And the T/C [5]?
A: 119 % of control

Q: Which results are given for `COC1C(O)CC(OC2CC(Oc3cc4cc5c(c(O)c4c(O)c3C)C(=O)[C@@H](OC3CC(OC4CC(OC6CC(C)(O)C(OC(C)=O)C(C)O6)C(O)C(C)O4)C(O)C(C)O3)[C@H]([C@H](OC)C(=O)[C@@H](O)[C@@H](C)O)C5)OC(C)C2OC(C)=O)OC1C` (stereo partly drawn)?
A: T/C (dose: 37.5 micrograms/kg/injection, schedule: Q01DX009 (ip), vehicle: water): 168 % of control; T/C (dose: 75.0 micrograms/kg/injection, schedule: Q01DX009 (ip), vehicle: water): 163 % of control

Q: Which results are given for `CCC(=O)OC1CC=NN2C(=O)C(NC(=O)c3nc4ccc(OC)cc4cc3O)COC(=O)C(C(C)(C)O)N(C)C(=O)CN(C)C(=O)CNC(=O)C3C(OC(C)=O)CC=NN3C(=O)C(NC(=O)c3nc4ccc(OC)cc4cc3O)COC(=O)C(C(C)(C)O)N(C)C(=O)CN(C)C(=O)CNC(=O)C12` (stereo not drawn) (I: {Quinaldoyl(3-OH,6-OMe)}-S[X1]G[Sar][ξNMeVal(3-OH)] / II: {Quinaldoyl(3-OH,6-OMe)}-S[X2]G[Sar][ξNMeVal(3-OH)]; ester I:1-II:C, I:C-II:1; configuration not given here)?
A: T/C (dose: 18.75 micrograms/kg/injection, schedule: Q01DX009 (ip), vehicle: DMSO): 117 % of control; T/C (dose: 37.5 micrograms/kg/injection, schedule: Q01DX009 (ip), vehicle: DMSO): 165 % of control and 169 % of control; T/C (dose: 75.0 micrograms/kg/injection, schedule: Q01DX009 (ip), vehicle: DMSO): 191 % of control and 160 % of control; T/C (dose: 150.0 micrograms/kg/injection, schedule: Q01DX009 (ip), vehicle: DMSO): 165 % of control

Q: Which T/C (dose: 4.0 mg/kg/injection, schedule: Q01DX009 (ip), vehicle: Klucel (hydroxypropylcellulose) (HPC)) does the source give for `CC(=O)OCc1cc(=O)n(C)c2c3c4c(cc12)c(C)cc(=O)n4CO3` here?
A: 102 % of control

Q: What about the T/C (dose: 5.0 mg/kg/injection, schedule: Q04DX005 (ip), vehicle: Klucel (hydroxypropylcellulose) (HPC)) of the same molecule?
A: 102 % of control

Q: And the T/C (dose: 8.0 mg/kg/injection, schedule: Q01DX009 (ip), vehicle: Klucel (hydroxypropylcellulose) (HPC))?
A: 100 % of control

Q: What about the T/C (dose: 10.0 mg/kg/injection, schedule: Q04DX005 (ip), vehicle: Klucel (hydroxypropylcellulose) (HPC)) of the same molecule?
A: 100 % of control

Q: And the T/C (dose: 16.0 mg/kg/injection, schedule: Q01DX009 (ip), vehicle: Klucel (hydroxypropylcellulose) (HPC))?
A: 99 % of control

Q: And the T/C (dose: 20.0 mg/kg/injection, schedule: Q01DX009 (ip), vehicle: Klucel (hydroxypropylcellulose) (HPC))?
A: 165 % of control

Q: And the T/C (dose: 20.0 mg/kg/injection, schedule: Q04DX005 (ip), vehicle: Klucel (hydroxypropylcellulose) (HPC))?
A: 116 % of control and 118 % of control

Q: What about the T/C (dose: 32.0 mg/kg/injection, schedule: Q01DX009 (ip), vehicle: Klucel (hydroxypropylcellulose) (HPC)) of the same molecule?
A: 99 % of control

Q: And the T/C (dose: 40.0 mg/kg/injection, schedule: Q01DX009 (ip), vehicle: Klucel (hydroxypropylcellulose) (HPC))?
A: 179 % of control

Q: And the T/C (dose: 40.0 mg/kg/injection, schedule: Q04DX005 (ip), vehicle: Klucel (hydroxypropylcellulose) (HPC))?
A: 102 % of control

Q: What about the T/C (dose: 64.0 mg/kg/injection, schedule: Q01DX009 (ip), vehicle: Klucel (hydroxypropylcellulose) (HPC)) of the same molecule?
A: 103 % of control

Q: What about the T/C (dose: 80.0 mg/kg/injection, schedule: Q04DX005 (ip), vehicle: Klucel (hydroxypropylcellulose) (HPC)) of the same molecule?
A: 92 % of control and 95 % of control

Q: What does the source list for `Cc1ccc2c(c1)n([O-])c1cc(Cl)ccc1[n+]2=O`?
A: T/C (dose: 25.0 mg/kg/injection, schedule: Q04DX004 (ip), vehicle: saline with Tween-80): 109 % of control; T/C [3]: 112 % of control; T/C [4]: 110 % of control; T/C [5]: 110 % of control; T/C (dose: 400.0 mg/kg/injection, schedule: Q04DX004 (ip), vehicle: saline with Tween-80): 115 % of control

Q: What does the source list for `COC1=C(C)C(=O)C2=C(C1=O)C(CO)N1C(C#N)C3CC4C(C1C2N1CCOC41)N3C` (stereo not drawn)?
A: T/C (dose: 0.06 mg/kg/injection, schedule: Q01DX009 (ip), vehicle: saline + alcohol): 116 % of control; T/C (dose: 0.13 mg/kg/injection, schedule: Q01DX009 (ip), vehicle: saline + alcohol): 95 % of control; T/C (dose: 0.25 mg/kg/injection, schedule: Q01DX009 (ip), vehicle: saline + alcohol): 98 % of control; T/C (dose: 0.5 mg/kg/injection, schedule: Q01DX009 (ip), vehicle: saline + alcohol): 103 % of control; T/C (dose: 1.0 mg/kg/injection, schedule: Q01DX009 (ip), vehicle: saline + alcohol): 122 % of control; T/C (dose: 62.5 micrograms/kg/injection, schedule: Q01DX009 (ip), vehicle: acid diluted with saline): 107 % of control; T/C (dose: 125.0 micrograms/kg/injection, schedule: Q01DX009 (ip), vehicle: acid diluted with saline): 96 % of control; T/C (dose: 250.0 micrograms/kg/injection, schedule: Q01DX009 (ip), vehicle: acid diluted with saline): 96 % of control; T/C (dose: 500.0 micrograms/kg/injection, schedule: Q01DX009 (ip), vehicle: acid diluted with saline): 109 % of control

Q: With `C=C1C(=O)OC2C(OC(C)=O)C1C(OC(=O)C(C)CC)[C@]1(C)C(=O)C=C[C@H]1[C@@H]2C` (stereo partly drawn) as the molecule, how does the T/C (dose: 1.25 mg/kg/injection, schedule: Q01DX009 (ip), vehicle: Klucel (hydroxypropylcellulose) (HPC)) read?
A: 110 % of control

Q: And the T/C (dose: 2.5 mg/kg/injection, schedule: Q01DX009 (ip), vehicle: Klucel (hydroxypropylcellulose) (HPC))?
A: 107 % of control

Q: And the T/C (dose: 5.0 mg/kg/injection, schedule: Q01DX009 (ip), vehicle: Klucel (hydroxypropylcellulose) (HPC))?
A: 101 % of control

Q: And the T/C (dose: 10.0 mg/kg/injection, schedule: Q01DX009 (ip), vehicle: Klucel (hydroxypropylcellulose) (HPC))?
A: 110 % of control

Q: `Nc1nc(=S)c2[nH]cnc2[nH]1` was tested. Which T/C (dose: 0.75 mg/kg/injection, schedule: Q04DX005 (ip), vehicle: alkali diluted with saline) did it give?
A: 101 % of control

Q: And the T/C (dose: 2.0 mg/kg/injection, schedule: Q04DX005 (ip), vehicle: alkali diluted with saline)?
A: 92 % of control

Q: And the T/C (dose: 6.0 mg/kg/injection, schedule: Q04DX005 (ip), vehicle: alkali diluted with saline)?
A: 157 % of control
